What was measured:
Settings in all cases: Compound concentration 100.0 nM
[1] = test system: Tyrosine-protein kinase ABL1 (Homo sapiens), P00519 [Q252H]
[2] = test system: ALK tyrosine kinase receptor (Homo sapiens), Q9UM73 [C1156Y]
[3] = biological target: Aurora kinase B (Homo sapiens) (UniProt Q96GD4)
[4] = biological target: BMP-2-inducible protein kinase (Homo sapiens) (UniProt Q9NSY1)
[5] = biological target: Mitotic checkpoint serine/threonine-protein kinase BUB1 (Homo sapiens) (UniProt O43683)
[6] = biological target: Cyclin-dependent kinase 4 (Homo sapiens) (UniProt P11802)
[7] = biological target: Cyclin-dependent kinase 4 (Homo sapiens) (UniProt P11802); remark: listed apart in the source
[8] = biological target: Dual specificity protein kinase CLK4 (Homo sapiens) (UniProt Q9HAZ1)
[9] = biological target: Casein kinase I isoform alpha (Homo sapiens) (UniProt P48729)
[10] = biological target: Casein kinase II subunit alpha (Homo sapiens) (UniProt P68400)
[11] = biological target: Dual specificity tyrosine-phosphorylation-regulated kinase 1B (Homo sapiens) (UniProt Q9Y463)
[12] = biological target: Epidermal growth factor receptor (Homo sapiens) (UniProt P00533)
[13] = test system: Epidermal growth factor receptor (Homo sapiens), P00533 [UNDEFINED MUTATION]
[14] = biological target: Ephrin type-A receptor 2 (Homo sapiens) (UniProt P29317)
[15] = biological target: Fibroblast growth factor receptor 1 (Homo sapiens) (UniProt P11362)
[16] = test system: Receptor-type tyrosine-protein kinase FLT3 (Homo sapiens), P36888 [D835V]
[17] = test system: Receptor-type tyrosine-protein kinase FLT3 (Homo sapiens), P36888 [UNDEFINED MUTATION]
[18] = biological target: G protein-coupled receptor kinase 3 (Homo sapiens) (UniProt P35626)
[19] = biological target: Homeodomain-interacting protein kinase 1 (Homo sapiens) (UniProt Q86Z02)
[20] = biological target: Homeodomain-interacting protein kinase 3 (Homo sapiens) (UniProt Q9H422)
[21] = biological target: Homeodomain-interacting protein kinase 4 (Homo sapiens) (UniProt Q8NE63)
[22] = biological target: Serine/threonine-protein kinase STK11 (Homo sapiens) (UniProt Q15831)
[23] = biological target: Leucine-rich repeat serine/threonine-protein kinase 2 (Homo sapiens) (UniProt Q5S007)
[24] = test system: Leucine-rich repeat serine/threonine-protein kinase 2 (Homo sapiens), Q5S007 [G2019S]
[25] = biological target: Dual specificity mitogen-activated protein kinase kinase 7 (Homo sapiens) (UniProt O14733)
[26] = biological target: Serine/threonine-protein kinase 4 (Homo sapiens) (UniProt Q13043)
[27] = biological target: Myosin-IIIa (Homo sapiens) (UniProt Q8NEV4)
[28] = biological target: Serine/threonine-protein kinase 38-like (Homo sapiens, UniProt Q9Y2H1)
[29] = biological target: Serine/threonine-protein kinase OSR1 (Homo sapiens) (UniProt O95747)
[30] = biological target: Serine/threonine-protein kinase PAK 6 (Homo sapiens) (UniProt Q9NQU5)
[31] = biological target: Phosphorylase b kinase regulatory subunit alpha, liver isoform (Homo sapiens) (UniProt P46019)
[32] = test system: Phosphatidylinositol 4,5-bisphosphate 3-kinase catalytic subunit alpha isoform (Homo sapiens), P42336 [C420R]
[33] = test system: Phosphatidylinositol 4,5-bisphosphate 3-kinase catalytic subunit alpha isoform (Homo sapiens), P42336 [M1043I]
[34] = biological target: Phosphatidylinositol 4-kinase beta (Homo sapiens) (UniProt Q9UBF8)
[35] = biological target: cGMP-dependent protein kinase 1 (Homo sapiens) (UniProt Q13976)
[36] = biological target: Serine/threonine-protein kinase RIO2 (Homo sapiens) (UniProt Q9BVS4)
[37] = biological target: Ribosomal protein S6 kinase alpha-4 (Homo sapiens) (UniProt O75676)
[38] = biological target: Serine/threonine-protein kinase Sgk3 (Homo sapiens) (UniProt Q96BR1)
[39] = biological target: Dual specificity testis-specific protein kinase 1 (Homo sapiens) (UniProt Q15569)
[40] = biological target: Serine/threonine-protein kinase tousled-like 2 (Homo sapiens) (UniProt Q86UE8)
[41] = biological target: High affinity nerve growth factor receptor (Homo sapiens) (UniProt P04629)
[42] = biological target: Testis-specific serine/threonine-protein kinase 3 (Homo sapiens) (UniProt Q96PN8)
[43] = biological target: Vascular endothelial growth factor receptor 2 (Homo sapiens) (UniProt P35968)
[44] = biological target: Serine/threonine-protein kinase 32A (Homo sapiens) (UniProt Q8WU08)
[45] = biological target: Tyrosine-protein kinase Yes (Homo sapiens) (UniProt P07947)

Sequence of Cyclin-dependent kinase 4 (Homo sapiens) (P11802 whole entry): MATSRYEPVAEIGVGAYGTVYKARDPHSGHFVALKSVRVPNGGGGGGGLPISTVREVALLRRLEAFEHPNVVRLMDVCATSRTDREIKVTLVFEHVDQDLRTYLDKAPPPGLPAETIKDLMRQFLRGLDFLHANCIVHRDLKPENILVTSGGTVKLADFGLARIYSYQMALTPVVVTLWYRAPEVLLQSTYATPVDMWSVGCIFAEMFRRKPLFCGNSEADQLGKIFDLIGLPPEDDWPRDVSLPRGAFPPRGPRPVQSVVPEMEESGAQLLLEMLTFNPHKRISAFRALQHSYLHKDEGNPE
Sequence of Serine/threonine-protein kinase OSR1 (Homo sapiens) (O95747 2-527 limits assumed): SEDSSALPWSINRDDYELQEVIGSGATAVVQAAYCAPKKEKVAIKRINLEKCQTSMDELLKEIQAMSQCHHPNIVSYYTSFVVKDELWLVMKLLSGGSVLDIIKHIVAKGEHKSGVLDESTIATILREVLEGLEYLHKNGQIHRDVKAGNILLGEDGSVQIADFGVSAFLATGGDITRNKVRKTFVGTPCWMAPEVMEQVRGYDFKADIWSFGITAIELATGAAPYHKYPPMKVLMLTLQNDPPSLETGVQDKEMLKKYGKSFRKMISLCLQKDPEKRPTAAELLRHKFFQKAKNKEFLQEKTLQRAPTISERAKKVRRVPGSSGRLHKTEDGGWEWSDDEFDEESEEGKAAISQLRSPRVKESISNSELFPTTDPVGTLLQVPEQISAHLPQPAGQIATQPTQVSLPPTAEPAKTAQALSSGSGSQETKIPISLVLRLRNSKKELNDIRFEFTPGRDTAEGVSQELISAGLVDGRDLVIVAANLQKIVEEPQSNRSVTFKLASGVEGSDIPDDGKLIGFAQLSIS
Sequence of Serine/threonine-protein kinase RIO2 (Homo sapiens) (Q9BVS4 whole entry, looked up): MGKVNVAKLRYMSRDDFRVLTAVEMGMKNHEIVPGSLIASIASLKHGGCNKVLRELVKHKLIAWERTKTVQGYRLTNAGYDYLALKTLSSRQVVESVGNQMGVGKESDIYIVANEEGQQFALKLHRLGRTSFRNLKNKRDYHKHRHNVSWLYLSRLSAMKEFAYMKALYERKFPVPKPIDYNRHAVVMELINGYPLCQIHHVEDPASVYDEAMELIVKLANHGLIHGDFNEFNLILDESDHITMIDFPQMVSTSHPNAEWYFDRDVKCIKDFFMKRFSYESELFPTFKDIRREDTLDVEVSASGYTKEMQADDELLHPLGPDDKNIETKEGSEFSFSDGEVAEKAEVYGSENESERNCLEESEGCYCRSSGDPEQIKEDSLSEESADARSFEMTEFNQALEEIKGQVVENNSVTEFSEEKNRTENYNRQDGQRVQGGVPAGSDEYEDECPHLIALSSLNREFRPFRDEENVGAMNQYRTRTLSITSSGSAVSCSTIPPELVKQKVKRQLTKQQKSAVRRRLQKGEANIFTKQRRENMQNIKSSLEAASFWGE
Sequence of High affinity nerve growth factor receptor (Homo sapiens) (P04629 33-796 limits assumed): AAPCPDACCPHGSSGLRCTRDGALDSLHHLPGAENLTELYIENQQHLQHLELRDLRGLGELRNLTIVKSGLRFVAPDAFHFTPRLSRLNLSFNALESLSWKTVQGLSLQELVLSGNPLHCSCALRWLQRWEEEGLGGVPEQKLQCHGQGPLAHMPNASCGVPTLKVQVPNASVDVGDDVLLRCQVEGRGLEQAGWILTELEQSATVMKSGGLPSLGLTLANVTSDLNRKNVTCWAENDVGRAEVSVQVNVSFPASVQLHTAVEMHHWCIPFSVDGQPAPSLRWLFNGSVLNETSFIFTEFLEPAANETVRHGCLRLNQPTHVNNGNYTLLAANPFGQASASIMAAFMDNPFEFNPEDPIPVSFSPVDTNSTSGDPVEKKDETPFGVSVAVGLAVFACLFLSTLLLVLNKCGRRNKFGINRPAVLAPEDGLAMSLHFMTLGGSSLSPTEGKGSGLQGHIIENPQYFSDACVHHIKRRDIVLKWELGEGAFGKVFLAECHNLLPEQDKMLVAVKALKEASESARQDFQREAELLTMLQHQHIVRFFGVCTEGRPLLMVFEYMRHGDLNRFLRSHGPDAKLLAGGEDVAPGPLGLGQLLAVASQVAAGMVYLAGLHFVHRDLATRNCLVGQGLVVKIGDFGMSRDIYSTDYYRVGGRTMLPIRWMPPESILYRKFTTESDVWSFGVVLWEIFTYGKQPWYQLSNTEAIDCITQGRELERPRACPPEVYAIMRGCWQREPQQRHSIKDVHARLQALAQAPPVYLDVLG
Sequence of Dual specificity mitogen-activated protein kinase kinase 7 (Homo sapiens) (O14733 whole entry): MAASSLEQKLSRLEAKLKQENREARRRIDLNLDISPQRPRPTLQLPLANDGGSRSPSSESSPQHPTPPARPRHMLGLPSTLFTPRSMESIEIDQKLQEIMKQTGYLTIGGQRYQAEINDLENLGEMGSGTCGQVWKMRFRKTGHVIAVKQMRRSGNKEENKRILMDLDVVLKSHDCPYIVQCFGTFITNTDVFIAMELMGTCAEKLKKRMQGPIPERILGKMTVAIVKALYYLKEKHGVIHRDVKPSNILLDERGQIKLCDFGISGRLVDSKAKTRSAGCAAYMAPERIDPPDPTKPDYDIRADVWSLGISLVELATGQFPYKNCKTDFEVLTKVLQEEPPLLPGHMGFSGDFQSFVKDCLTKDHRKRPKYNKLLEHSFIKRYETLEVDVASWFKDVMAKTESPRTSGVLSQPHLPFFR
Sequence of Serine/threonine-protein kinase tousled-like 2 (Homo sapiens) (Q86UE8 whole entry, looked up): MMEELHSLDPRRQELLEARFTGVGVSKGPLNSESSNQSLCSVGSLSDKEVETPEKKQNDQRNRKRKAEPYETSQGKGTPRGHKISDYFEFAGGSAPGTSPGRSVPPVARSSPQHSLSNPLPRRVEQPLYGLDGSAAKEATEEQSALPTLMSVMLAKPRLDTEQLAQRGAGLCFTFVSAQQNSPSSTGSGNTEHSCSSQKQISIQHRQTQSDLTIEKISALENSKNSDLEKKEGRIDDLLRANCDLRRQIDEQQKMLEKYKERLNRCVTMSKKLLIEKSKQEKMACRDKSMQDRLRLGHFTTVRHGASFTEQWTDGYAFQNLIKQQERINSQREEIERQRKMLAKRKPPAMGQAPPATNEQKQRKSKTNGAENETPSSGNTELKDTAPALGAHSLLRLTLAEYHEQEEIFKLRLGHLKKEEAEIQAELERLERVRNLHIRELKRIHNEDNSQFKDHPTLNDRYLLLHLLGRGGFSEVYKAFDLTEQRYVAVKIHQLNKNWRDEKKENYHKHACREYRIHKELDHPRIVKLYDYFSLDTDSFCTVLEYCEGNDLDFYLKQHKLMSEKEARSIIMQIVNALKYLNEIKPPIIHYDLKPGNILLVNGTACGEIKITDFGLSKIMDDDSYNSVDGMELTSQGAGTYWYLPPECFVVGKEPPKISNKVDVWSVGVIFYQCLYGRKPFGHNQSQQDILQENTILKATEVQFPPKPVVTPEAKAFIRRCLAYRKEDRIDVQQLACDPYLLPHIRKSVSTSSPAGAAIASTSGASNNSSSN
Sequence of Serine/threonine-protein kinase 4 (Homo sapiens) (Q13043 whole entry): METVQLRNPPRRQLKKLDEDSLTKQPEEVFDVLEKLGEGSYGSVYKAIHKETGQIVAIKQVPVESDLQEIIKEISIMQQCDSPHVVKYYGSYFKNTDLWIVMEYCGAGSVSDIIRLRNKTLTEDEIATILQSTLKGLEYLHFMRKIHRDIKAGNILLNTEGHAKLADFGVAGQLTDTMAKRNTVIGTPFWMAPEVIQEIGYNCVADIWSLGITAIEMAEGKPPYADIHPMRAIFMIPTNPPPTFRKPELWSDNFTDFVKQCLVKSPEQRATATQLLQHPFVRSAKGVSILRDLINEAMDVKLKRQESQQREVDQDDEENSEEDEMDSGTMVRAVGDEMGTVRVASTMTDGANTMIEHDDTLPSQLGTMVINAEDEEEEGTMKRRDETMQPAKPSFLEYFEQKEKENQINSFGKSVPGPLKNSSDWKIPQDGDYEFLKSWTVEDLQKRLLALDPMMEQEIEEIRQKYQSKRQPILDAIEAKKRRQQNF
Sequence of Dual specificity protein kinase CLK4 (Homo sapiens) (Q9HAZ1 whole entry, looked up, canonical isoform): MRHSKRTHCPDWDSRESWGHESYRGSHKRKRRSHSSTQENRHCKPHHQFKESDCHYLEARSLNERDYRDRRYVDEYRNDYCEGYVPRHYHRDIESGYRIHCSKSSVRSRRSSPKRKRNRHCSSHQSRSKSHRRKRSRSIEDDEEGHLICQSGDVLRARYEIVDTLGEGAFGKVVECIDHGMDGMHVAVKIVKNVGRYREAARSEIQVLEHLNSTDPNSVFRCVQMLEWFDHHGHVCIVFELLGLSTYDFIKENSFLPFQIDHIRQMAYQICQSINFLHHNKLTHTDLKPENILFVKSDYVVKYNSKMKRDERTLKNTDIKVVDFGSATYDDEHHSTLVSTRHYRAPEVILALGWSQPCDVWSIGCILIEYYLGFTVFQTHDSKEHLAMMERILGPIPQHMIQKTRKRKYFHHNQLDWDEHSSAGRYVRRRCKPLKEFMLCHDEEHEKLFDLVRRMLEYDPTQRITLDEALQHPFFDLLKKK
Sequence of Casein kinase I isoform alpha (Homo sapiens) (P48729 2-337 limits assumed): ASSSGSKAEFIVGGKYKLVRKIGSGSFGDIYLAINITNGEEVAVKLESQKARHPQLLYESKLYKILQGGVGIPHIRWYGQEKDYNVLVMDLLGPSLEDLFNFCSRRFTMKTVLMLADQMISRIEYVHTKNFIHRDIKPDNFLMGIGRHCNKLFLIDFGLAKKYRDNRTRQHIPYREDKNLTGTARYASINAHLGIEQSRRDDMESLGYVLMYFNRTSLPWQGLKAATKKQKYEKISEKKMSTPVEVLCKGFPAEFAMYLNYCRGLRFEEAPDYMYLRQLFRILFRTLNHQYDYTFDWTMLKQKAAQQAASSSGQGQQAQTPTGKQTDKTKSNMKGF
Sequence of Aurora kinase B (Homo sapiens) (Q96GD4 whole entry): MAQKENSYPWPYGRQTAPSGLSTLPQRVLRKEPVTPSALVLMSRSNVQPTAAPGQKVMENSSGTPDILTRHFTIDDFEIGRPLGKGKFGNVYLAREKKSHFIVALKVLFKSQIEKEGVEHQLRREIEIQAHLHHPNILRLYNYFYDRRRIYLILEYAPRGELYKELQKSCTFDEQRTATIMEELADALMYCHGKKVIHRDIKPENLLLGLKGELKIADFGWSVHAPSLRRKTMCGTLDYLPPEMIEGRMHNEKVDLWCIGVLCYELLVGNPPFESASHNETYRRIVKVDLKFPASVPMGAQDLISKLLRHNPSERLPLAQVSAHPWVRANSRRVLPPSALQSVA

CS(=O)(=O)N1CCCC(NC(=O)[C@H](CCC2CCCCC2)NC(=O)c2ccc(CNc3ncnc4c3nnn4-c3ccccc3)cc2)C1 (stereo not given in full) [SR-301]
residual activity [1]: 95% | residual activity [2]: 100% | residual activity [3]: 100% | residual activity [4]: 84% | residual activity [5]: 100% | residual activity [6]: 91% | residual activity [7]: 100% | residual activity [8]: 85% | residual activity [9]: 99% | residual activity [10]: 94% | residual activity [11]: 100% | residual activity [12]: 100% | residual activity [13]: 100% | residual activity [14]: 100% | residual activity [15]: 91% | residual activity [16]: 89% | residual activity [17]: 100% | residual activity [18]: 100% | residual activity [19]: 100% | residual activity [20]: 100% | residual activity [21]: 100% | residual activity [22]: 100% | residual activity [23]: 51% | residual activity [24]: 100% | residual activity [25]: 100% | residual activity [26]: 100% | residual activity [27]: 97% | residual activity [28]: 24% | residual activity [29]: 100% | residual activity [30]: 100% | residual activity [31]: 100% | residual activity [32]: 89% | residual activity [33]: 87% | residual activity [34]: 100% | residual activity [35]: 95% | residual activity [36]: 99% | residual activity [37]: 91% | residual activity [38]: 83% | residual activity [39]: 100% | residual activity [40]: 82% | residual activity [41]: 100% | residual activity [42]: 100% | residual activity [43]: 85% | residual activity [44]: 57% | residual activity [45]: 98%

CS(=O)(=O)N1CCCC(NC(=O)[C@H](CCC2CCCCC2)NC(=O)c2ccc(CNC(=O)c3cnc4ccccn34)cc2)C1 (stereo not given in full) [SR-302]
residual activity [1]: 88% | residual activity [2]: 100% | residual activity [3]: 95% | residual activity [4]: 92% | residual activity [5]: 100% | residual activity [6]: 99% | residual activity [7]: 100% | residual activity [8]: 98% | residual activity [9]: 100% | residual activity [10]: 100% | residual activity [11]: 100% | residual activity [12]: 76% | residual activity [13]: 100% | residual activity [14]: 100% | residual activity [15]: 100% | residual activity [16]: 61% | residual activity [17]: 100% | residual activity [18]: 100% | residual activity [19]: 100% | residual activity [20]: 100% | residual activity [21]: 88% | residual activity [22]: 51% | residual activity [23]: 64% | residual activity [24]: 100% | residual activity [25]: 95% | residual activity [26]: 100% | residual activity [27]: 99% | residual activity [28]: 40% | residual activity [29]: 94% | residual activity [30]: 100% | residual activity [31]: 100% | residual activity [32]: 93% | residual activity [33]: 37% | residual activity [34]: 98% | residual activity [35]: 100% | residual activity [36]: 100% | residual activity [37]: 100% | residual activity [38]: 74% | residual activity [39]: 93% | residual activity [40]: 89% | residual activity [41]: 100% | residual activity [42]: 93% | residual activity [43]: 96% | residual activity [44]: 81% | residual activity [45]: 88%
